According to patent publication US20060122181A1, “Heteroaromatic pentacyclic compound and medicinal use thereof” (Japan Tobacco Inc., priority 2003, published 2006):

| SMILES | melting point |
| --- | --- |
| CCCC(CCC)c1ccc(CNC(=O)c2ccc(-c3csc(CN(CC(=O)O)Cc4ccccc4)n3)cc2)cc1 [Example 1-55] | 141 to 143 °C |
| CCC(CC)c1ccc(N(Cc2ccc(-c3csc(CN4CCN(c5ccc(C(=O)O)cc5)CC4)n3)cc2)C(C)C)cc1 [Example 1-154] | 232 to 234 °C |
| CN(Cc1ccc(C2CCC(C)(C)CC2)cc1)c1ccc(-c2csc(CN(C)S(=O)(=O)CC(=O)O)n2)cc1 [Example 3-99] | 184 to 190 °C |
| CCC(C)(C)c1ccc(OCc2ccc(-c3csc(N(C)Cc4ccc(C(=O)O)cc4)n3)cc2)cc1 [Example 1-38] | 155 to 157 °C |
| CC(C)Cc1ccc(COc2ccc(C(C)(C)C)cc2-c2csc(CN(CC(=O)O)Cc3ccccc3)n2)cc1 [Example 3-12] | 155 to 157 °C |
| CN(Cc1ccc(C2CCCCC2)cc1)c1ccc(-c2csc(CN(C)S(=O)(=O)c3cccc(C(=O)O)c3)n2)cc1 [Example 3-101] | 164 to 166 °C |
| CCCC(CCC)c1ccc(COc2ccc(-c3csc(COc4ccc(C(=O)O)cc4)n3)cc2)cc1 [Example 3-2] | 204 to 207 °C |
| CCCC(CCC)c1ccc(COc2ccc(-c3csc(CN(CC(=O)O)Cc4cscn4)n3)c(C)c2)cc1 [Example 3-121] | 103 to 104 °C |
| CC(C)CCN(CC(=O)O)Cc1nc(-c2ccc(N(C)Cc3ccc(C4CCCCC4)cc3)cc2)cs1 [Example 3-91] | 153 to 154 °C |
| CCC(CC)c1ccc(N(Cc2ccc(-c3csc(COc4cncc(C(=O)OC)c4)n3)cc2)C(C)C)cc1 [Example 1-89] | 111 to 113 °C |
| CN(Cc1ccccc1)c1ccc(-c2csc(CN(CC(=O)O)Cc3ccc(Cl)cc3)n2)cc1 [Example 3-49] | 140 to 142 °C |
| CCC(CC)c1ccc(N(Cc2ccc(-c3csc(COc4cccc(C(=O)O)c4)n3)cc2)C(C)C)cc1 [Example 1-91] | 165 to 167 °C |
| Cc1ccc(COc2ccc(-c3csc(CN4CCC(c5cccc(C(=O)O)c5)CC4)n3)cc2)cc1[N+](=O)[O-] [Example 1-184] | 205 to 210 °C |
| CCCC(CCC)c1ccc(N(Cc2ccc(-c3csc(COc4cncc(C(=O)O)c4)c3)cc2)C(C)C)cc1 [Example 4-3] | 156 °C |
| CCC(CC)c1ccc(N(Cc2ccc(-c3csc(COc4ccc(C(=O)O)cn4)n3)cc2)C(C)C)cc1 [Example 1-3] | 177 to 181 °C |
| CCCC(CCC)c1ccc(OCc2ccc(-c3csc(CN(C)[C@@H](Cc4ccccc4)C(=O)O)n3)cc2)cc1 [Example 1-42] | 114 to 118 °C |
| CCC(CC)c1ccc(N(Cc2ccc(-c3ccc(COc4cncc(C(=O)O)c4)s3)cc2)C(C)C)cc1 [Example 4-17] | 160 to 164 °C |
| CN(Cc1ccc(CC(C)(C)C)cc1)c1ccc(-c2csc(CN(C)C(C(=O)O)c3ccccc3)n2)cc1 (stereo not drawn) [Example 3-88] | 171 to 173 °C |
| CN(Cc1ccc(CC(C)(C)C)cc1)c1ccc(-c2csc(CN(C)C(Cc3ccccc3)C(=O)O)n2)cc1 (stereo not drawn) [Example 3-89] | 160 to 161 °C |
| CC(C)CN(Cc1ccc(-c2csc(CN(CC(=O)O)C(=O)c3cccnc3)n2)cc1)c1ccc(C(C)(C)C)cc1 [Example 1-30] | 193 °C |
| CC(C)CN(Cc1ccc(-c2csc(CN(CC(=O)O)C(=O)c3ccccn3)n2)cc1)c1ccc(C(C)(C)C)cc1 [Example 1-29] | 160 °C |

| SMILES | melting point |
| --- | --- |
| CCC(CC)c1ccc(N(Cc2ccc(-c3ccc(CN(CC(=O)O)Cc4nc(C(C)(C)C)cs4)s3)cc2)C(C)C)cc1 [Example 4-19] | 92 to 98 °C |
| CCC(CC)N(Cc1ccc(-c2csc(COc3cncc(C(=O)O)c3)n2)cc1)c1ccc(C(C)C)cc1 [Example 1-12] | 110 to 114 °C |
| CCC(CC)c1ccc(N(Cc2ccc(-c3csc(COc4cc(C(=O)O)ccc4N)n3)cc2)C(C)C)cc1 [Example 1-90] | 179 to 181 °C |
| CCCC(CCC)c1ccc(OCc2ccc(-c3csc(COc4cncc(C(=O)O)c4)c3)cc2)cc1.O=S(=O)(O)O [Example 4-48] | 151 to 155 °C (dec.) |
| CN(Cc1ccc(CC(C)(C)C)cc1)c1ccc(-c2csc(CN(CC(=O)O)Cc3ccccc3)n2)cc1 [Example 3-27] | 159 to 160 °C |
| CCCC(CCC)c1ccc(OCc2ccc(-c3csc(CN(CCC(C)C)CC(=O)O)c3)cc2)cc1 [Example 4-71] | 176 to 182 °C |
| CCC(CC)c1ccc(N(Cc2ccc(-c3csc(CN(C)[C@@H](Cc4ccccc4)C(=O)O)n3)cc2)C(C)C)cc1 [Example 1-22] | 80 °C |
| CCC(CC)c1ccc(N(Cc2ccc(-c3csc(COc4cc(C(=O)O)ccc4[N+](=O)[O-])n3)cc2)C(C)C)cc1 [Example 1-93] | 198 to 200 °C |
| CCCC(CCC)c1ccc(N(Cc2ccc3nc(-c4csc(CN(CC(=O)O)Cc5nc6ccccc6[nH]5)n4)oc3c2)C(C)C)cc1 [Example 1-139] | 127 to 133 °C |
| CCCC(CCC)c1ccc(OCc2ccc(-c3ccc(C(=O)N(CC(=O)O)Cc4ccccn4)s3)cc2)cc1 [Example 4-46] | 147 to 150 °C |
| CCCCOc1ccc(COc2ccc(-c3csc(CN4CCC(c5cccc(C(=O)O)c5)CC4)n3)cc2)cc1 [Example 1-175] | 222 to 225 °C |
| CCCC(CCC)c1ccc(OCc2ccc(-c3csc(CNC(=O)c4ccc(C(=O)O)cn4)n3)cc2)cc1 [Example 1-163] | 164 to 166 °C |
| CCCC(CCC)c1ccc(OCc2ccc(-c3csc(COc4cccnc4C(=O)O)n3)cc2)cc1 [Example 1-82] | 138.5 °C (dec.) |
| CCCC(CCC)c1ccc(OCc2ccc(-c3ccc(CN(CC(=O)O)S(C)(=O)=O)s3)cc2)cc1 [Example 4-49] | 133.1 to 136.5 °C |
| CC(C)CCSc1ccc(CN(C)c2ccc(-c3csc(CN(CC(=O)O)Cc4ccccc4)n3)cc2)cc1 [Example 3-42] | 122 °C |
| CCCC(CCC)c1ccc(Cn2cc(-c3csc(CN4CCC(C(=O)O)CC4)n3)c3ccccc32)cc1 [Example 1-165] | 111 to 115 °C |
| CCCC(CCC)c1ccc(N(C)Cc2ccc(-c3csc(CSc4ccc(C(=O)O)cc4)n3)cc2)cc1 [Example 1-14] | 122 to 124 °C |
| CC(C)c1ccc(Cn2c(-c3csc(CN4CCc5ccc(C(=O)O)cc5C4)n3)nc3ccc(N4CCOCC4)cc32)cc1 [Example 1-185] | 141 to 143.2 °C |
| CCCC(CCC)c1ccc(N(Cc2ccc(-c3csc(CN(CC(=O)O)C(=O)COCc4ccccc4)n3)cc2)C(C)C)cc1 [Example 1-134] | 158 to 160 °C |
| CCCC(CCC)c1ccc(OCc2ccc(-c3csc(CN(CC(=O)O)CC(=O)N(c4ccccc4)C(C)C)n3)cc2)cc1 [Example 1-99] | 115.5 °C |
| CCCC(CCC)c1ccc(N(C)Cc2ccc(-c3csc(COc4cncc(C(=O)O)c4)n3)cc2)cc1 [Example 1-4] | 135 to 138 °C |

| SMILES | melting point |
| --- | --- |
| CCCC(CCC)c1ccc(OCc2ccc(-c3csc(CN4Cc5ccccc5C[C@H]4C(=O)O)n3)cc2)cc1 [Example 1-46] | 77 to 82 °C |
| CC(C)Cc1ccc(CN(C)c2ccc(-c3csc(CNC(Cc4ccc(Cl)cc4)C(=O)O)n3)cc2)cc1 (stereo not drawn) [Example 3-79] | 199 to 204 °C |
| CCCC(CCC)c1ccc(COc2ccc(-c3csc(CN4Cc5ccccc5C[C@H]4C(=O)[O-])n3)cc2)cc1.[Na+] [Example 3-112] | 254 to 255 °C |
| CCC(CC)c1ccc(N(Cc2ccc(-c3ccc(CN4Cc5ccccc5C[C@H]4C(=O)O)s3)cc2)C(C)C)cc1 [Example 4-28] | 152 °C |
| CC(C)CC(=O)N(CC(=O)O)Cc1nc(-c2ccc(N(C)Cc3ccc(CC(C)C)cc3)cc2)cs1 [Example 3-59] | 117 to 118 °C |
| CCN(Cc1ccc(C(C)C)cc1)c1ccc(-c2csc(CN(CC(=O)O)Cc3ccc(C(C)C)cc3)n2)cc1 [Example 3-44] | 74 to 78 °C |
| CN(Cc1nc(-c2ccc(N(C)Cc3ccc(C4CCCCC4)cc3)cc2)cs1)C(=O)NCC(=O)O [Example 3-109] | 149 to 150 °C |
| CCCC(CCC)c1ccc(OCc2ccc(-c3ccc(CN(CC(=O)O)Cc4cccc(C(=O)O)c4)s3)cc2)cc1 [Example 4-76] | 202.8 to 206.4 °C |
| CCCC(CCC)c1ccc(OCc2ccc(-c3csc(CN(CC(=O)O)CC(=O)Nc4ccc(C(C)C)cc4)c3)cc2)cc1 [Example 4-27] | 164 to 166 °C |
| CCCC(CCC)c1ccc(OCc2ccc(-c3csc(COc4ccc(C(=O)O)cc4)n3)cc2)cc1 [Example 1-49] | 199 to 202 °C |
| CCCC(CCC)c1ccc(N(Cc2ccc(-c3csc(CN(CC(=O)O)Cc4nc(C)c(C)s4)n3)cc2)C(C)C)cc1 [Example 1-146] | 156 to 157 °C |
| CCCC(CCC)c1ccc(COc2ccc(-c3csc(CN(CC(=O)O)Cc4ccccn4)n3)cc2)cc1 [Example 3-19] | 155 to 156 °C |
| CCCC(CCC)c1ccc(COc2ccc(-c3csc(CN4CCC(c5ccccc5C(=O)O)CC4)n3)cc2)cc1 [Example 1-164] | 170 to 172 °C |
| CC(C)c1ccc(Cn2c(-c3csc(CN4CCN(c5cccc(C(=O)O)c5)CC4)n3)nc3ccc(N4CCOCC4)cc32)cc1 [Example 1-186] | 128.5 to 131.5 °C |
| CN(Cc1ccc(C2CCCCC2)cc1)c1ccc(-c2csc(N(C)Cc3ccc(C(=O)O)o3)n2)cc1 [Example 3-75] | 158 to 161 °C |
| CCCC(CCC)c1ccc(N(Cc2ccc(-c3csc(COc4cc(C(=O)O)ccc4NC(=O)C(C)C)n3)cc2)C(C)C)cc1 [Example 1-113] | 166 to 168 °C |
| CC(C)Cc1ccc(CN(C)c2ccc(-c3csc(CN(CC(=O)O)C(=O)Cc4ccc(Cl)cc4)n3)cc2)cc1 [Example 3-57] | 150 to 152 °C |
| CN(Cc1ccc(-c2ccccc2)cc1)c1ccc(-c2csc(CN(CC(=O)O)Cc3ccccc3)n2)cc1 [Example 3-37] | 167 to 170 °C |
| CCCC(CCC)c1ccc(CN2CCCc3cc(-c4csc(CN(CC(=O)O)Cc5nc(C(C)(C)C)cs5)n4)ccc32)cc1 [Example 3-125] | 132 to 135 °C |
| CCC(CC)c1ccc(COc2ccc(-c3csc(CN(CC(=O)O)Cc4ccccn4)n3)cc2)cc1 [Example 3-20] | 156 to 157 °C |
| CN(Cc1ccc(CC(C)(C)C)cc1)c1ccc(-c2csc(CN(CC(=O)O)C(=O)Nc3ccccc3)n2)cc1 [Example 3-60] | 152 to 153 °C |
